Assay results: patent publication US20250120929A1, “METHOD OF TREATING VIRUS-ASSOCIATED INFECTION USING ACETAMINOPHEN” (Sanbiozi Medical Science Inc., priority 2023, published 2025)

Legend:
Mv1Lu cells = test: In vitro test for cytotoxicity of acetaminophen; assay type: cell-based, mink; details: five days of incubation; concentration as high as 1000 μg/mL
Description: Specifically, mink lung epithelial cells, Mv1Lu, were treated with acetaminophen.

MHV-A59 = test: In vivo test of acetaminophen against MHV-infected mice; set-up: species or system C57BL/6 mice; details: 0.25 mg/mL acetaminophen solution daily via oral gavage, MHV-A59 5×10^6 PFU/mouse i.p.
Description: The present invention utilized the Mouse Hepatitis Virus (MHV) and swine virus PRRS as the infectious agents to evaluate the effectiveness of acetaminophen in vivo. We aimed to perform mouse and piglet survival experiments to completely assess acetaminophen against virus infection as a preclinical evaluation.
Intraperitoneal administration of MHV-A59 with high titer (5×10^6 PFU/mouse) on C57BL/6 mice to cause a high mortality rate. The MHV-infected mice were grouped as follows: 1. PBS vehicle control; 2. 0.25 mg/mL of acetaminophen solution treatment groups followed by treating acetaminophen daily via oral gavage. The viral administration cause loss of body weights on mice. […] These animal data strongly argue the potential application of acetaminophen in developing to an antiviral agent.

PRRS virus (PRRSV2) [1] = test: In vivo test of acetaminophen against PRRS-infected piglet; details: 80 mL acetaminophen therapy three times orally
Description: (§1) In this embodiment, the weaned piglets were selected according to their PRRS syndromes. The three piglets were randomly selected in accordance with the professional experience on the syndromes of PRRS and the […] principles of animal test were followed as well. Three infected piglets were proceeded for preliminary test of the effectiveness of antiviral drugs of PRRS.
(§2) Three infected piglets raised in an isolated pen of the same pig house. Eighty milliliter acetaminophen therapy was given three times orally. Their blood samples were test weekly. Unfortunately, piglet 1 was unable to make over the first week. The other 2 piglets were able make over the process.

PRRS virus (PRRSV2) [2] = test: as above; set-up: unit not given here
Description: as §1, §2

PRRS virus (PRRSV2) [3] = test: as above; set-up: key: −: Negative; ±: Virus was detected at very low concentrations
Description: as §1, §2

In the case of `CC(=O)Nc1ccc(O)cc1` [acetaminophen], the “cytotoxicity on Mv1Lu cells” value (Mv1Lu cells) is reported as “no significant cytotoxicity”, the “body weight of MHV-infected mice” value (MHV-A59; compared to MHV-only mice) is reported as “significantly retained the mouse weights” and the “survival rate (printed as mortality rate) of MHV-infected mice” value (MHV-A59; virus vehicle control 100% death rate) is reported as 50%. For the same compound, the “virus concentration in the body” value (PRRS virus (PRRSV2) [1]; piglets 2 and 3) was “decreased”, the “survival of PRRS-infected piglets” value (PRRS virus (PRRSV2) [1]; three infected piglets) was “piglets 2 and piglet 3 survived” and the “Concentration of PRRSV2 by RT-PCR” value (PRRS virus (PRRSV2) [2]; Piglet 1, test 1 (weekly blood sample)) was 7.7 × 10 ^5. The “Concentration of PRRSV2 by RT-PCR” value (PRRS virus (PRRSV2) [2]; Piglet 2, test 2 (weekly blood sample), weekly blood test 2) was 1.3 × 10^3, the “Concentration of PRRSV2 by RT-PCR” value (PRRS virus (PRRSV2) [2]; Piglet 3, test 1 (weekly blood sample), weekly blood test 1) was 8.2 × 10 ^4 and the “Concentration of PRRSV2 by RT-PCR” value (PRRS virus (PRRSV2) [2]; Piglet 3, test 3 (weekly blood sample), weekly blood test 3) was 2.9 × 10 ^2. For the same compound, the “Concentration of PRRSV2 by RT-PCR” value (PRRS virus (PRRSV2) [3]; Piglet 2, test 1 (weekly blood sample), weekly blood test 1) was “−”, the “Concentration of PRRSV2 by RT-PCR” value (PRRS virus (PRRSV2) [3]; Piglet 2, test 3 (weekly blood sample), weekly blood test 3) was “−” and the “Concentration of PRRSV2 by RT-PCR” value (PRRS virus (PRRSV2) [3]; Piglet 3, test 2 (weekly blood sample), weekly blood test 2) was “±”.
